Data reported in PMC10349806 (Nature Communications, 2023).
Several values for one entry are separate records, joined by “and”; a condition that tells them apart may be missing. Identical values can stand only once.

Target: PfCRT^Dd2 (Plasmodium falciparum, UniProt Q9N623, A220S/I356T/K76T/M74I/N326S/N75E/Q271E/R371I)
Test: Drug uptake assay, X. laevis oocytes expressing PfCRT^Dd2
Format: cell-based
Conditions: for v-1 pH 4.5 / v-1 pH 5.0 / v-1 pH 5.5 / v-1 pH 6.0: Lineweaver-Burk
Description: Oocytes were obtained as described previously. Briefly, adult (>2 years old) female X. laevis frogs (NASCO) were anesthetized in a cooled solution of ethyl 3-amino benzoate methanesulfonate (0.1%, w/v), followed by a surgical removal of parts of the ovary. The ovary lobes were carefully dissected and small pieces of oocytes were incubated in Ca^2+-free ND96 buffer (96 mM NaCl, 2 mM KCl, 1 mM MgCl2 buffered with 5 mM HEPES/NaOH, pH 7.5) supplemented with collagenase D (0.1%, w/v; Roche), BSA (0.5%, w/v), and 9 mm Na2HPO4 at 18 °C for 14-16 h while gentle shaking. After incubation, the oocytes were carefully washed several times with ND96 buffer (96 mM NaCl, 2 mM KCl, 1.8 mM CaCl2, 1 mM MgCl2 buffered with 5 mM HEPES/NaOH, pH 7.5) supplemented with 100 mg l^−1 gentamycin). Defolliculated and healthy-looking stage V-VI oocytes were manually selected for RNA microinjection. The RNA was generated as following: The codon-optimized sequences of PfCRT variants were cloned into the pSP64T expression vector. After vector linearization using the restriction endonucleases BamHI or SalI (New England Biolabs), transcription was performed using the in vitro SP6 mMessage mMachine Kit (Ambion)[34]. The obtained RNA was kept at −80 °C and diluted with nuclease-free water to a concentration of 0.6 μg μl^−1. Precision-bore glass capillary tubes (3.5-inch glass capillaries; Drummond Scientific Co.) were pulled on a vertical puller (P-87 Flaming/Brown micropipette puller, Sutter Instrument Co.), graduated, and placed on a microinjector (Nanoject II Auto-Nanoliter Injector, Drummond Scientific Co.). 50 nl of nuclease-free water alone (control oocytes) or 50 nl of 0.6 μg μl^−1 RNA were injected under stereomicroscopic control. Injected oocytes were incubated for 46–72 h at 18 °C with twice-daily buffer changes before usage in experiments.
Drug uptake assays were performed as described previously[21],[22],[24],[34]. […] The direction of radio-labeled drug transport is here from the mostly acidic extracellular solution (pH 4.5 or 6.0, as indicated) into the oocyte cytosol (pH ∼ 7.2), which corresponds to the efflux of drug from the acidic digestive vacuole (pH 5.2) into the parasite cytoplasm (pH 7.2). The topology of PfCRT in the oolemma is such that both the N- and C-terminus face the extracellular milieu[3],[22]. In the parasite, the N- and C-terminus face the lumen of the digestive vacuole. […] For determination of the amount of drug uptake for each oocyte, the reaction medium was removed and the oocytes were washed three times with 2 ml of ice-cold ND96 buffer. Each oocyte was individually transferred to a scintillation vial containing 5% sodium dodecyl sulfate (200 μl) for lysis. […] Oocytes that were injected with water instead of RNA were analyzed in parallel, representing the uptake of a drug by diffusion and/or endogenous permeation pathways. The resulting value represents the “background“ level of drug accumulation in oocytes (in-depth discussion in[22]). The specific PfCRT-mediated uptake was determined by subtracting the corresponding background value measured in water-injected oocytes from that of PfCRT-expressing oocytes. In all cases, at least three separate experiments were performed on oocytes from different frogs (biological replicate), and for each condition in an experiment, measurements were made from 10 oocytes per treatment. For pH 5.5, 6.0, and 6.5, ND96 was buffered with 5 mM MES/Tris base. For pH 4.5, 5 mM Homo-Pipes was used as a buffer and 5 mM HEPES for uptake at pH 7.0.

Chain of PfCRT^Dd2 (Q9N623 whole entry A220S/I356T/K76T/M74I/N326S/N75E/Q271E/R371I): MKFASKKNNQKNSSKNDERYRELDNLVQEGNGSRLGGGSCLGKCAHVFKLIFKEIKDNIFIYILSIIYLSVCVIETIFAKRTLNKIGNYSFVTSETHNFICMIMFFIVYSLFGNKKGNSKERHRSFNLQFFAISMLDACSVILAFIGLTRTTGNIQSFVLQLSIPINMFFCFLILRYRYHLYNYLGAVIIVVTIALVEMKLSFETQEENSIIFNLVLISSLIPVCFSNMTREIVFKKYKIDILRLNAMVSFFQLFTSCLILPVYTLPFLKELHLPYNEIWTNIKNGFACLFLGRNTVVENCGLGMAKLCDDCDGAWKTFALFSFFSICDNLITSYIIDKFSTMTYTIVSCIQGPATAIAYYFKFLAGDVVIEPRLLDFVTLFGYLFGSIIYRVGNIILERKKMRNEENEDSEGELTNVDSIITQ

## CCN(CC)CCCC(C)Nc1ccnc2cc(Cl)ccc12 (centres unmarked) [CQ, chloroquine]
100 µM CQ, time 0 min
  PfCRTDd2-mediated CQ transport activity: 0.00 pmol oocyte-1
100 µM CQ, time 30 min
  PfCRTDd2-mediated CQ transport activity: 5.73 pmol oocyte-1
100 µM CQ, time 60 min
  PfCRTDd2-mediated CQ transport activity: 8.29 pmol oocyte-1
100 µM CQ, time 90 min
  PfCRTDd2-mediated CQ transport activity: 9.71 pmol oocyte-1
100 µM CQ
  v-1 pH 4.5: 0.19 (pmol oocyte-1 h-1)-1
  v-1 pH 5.0: 0.18 (pmol oocyte-1 h-1)-1
  v-1 pH 5.5: 0.13 (pmol oocyte-1 h-1)-1
  v-1 pH 6.0: 0.11 (pmol oocyte-1 h-1)-1
200 µM CQ, pH 4.5, 60 min
  PfCRTDd2 transport activity: 7.21 pmol oocyte-1 h-1 and 7.32 pmol oocyte-1 h-1 and 8.24 pmol oocyte-1 h-1 and 6.30 pmol oocyte-1 h-1 and 7.78 pmol oocyte-1 h-1 and 6.41 pmol oocyte-1 h-1
200 µM CQ, pH 4.5, individual replicates (Fig 4a)
  PfCRTDd2 transport activity 200 µM CQ pH 4.5: 7.32 pmol oocyte-1 h-1 and 8.24 pmol oocyte-1 h-1 and 6.30 pmol oocyte-1 h-1 and 7.78 pmol oocyte-1 h-1 and 6.41 pmol oocyte-1 h-1
200 µM CQ, pH 5.0, 60 min
  PfCRTDd2 transport activity: 9.98 pmol oocyte-1 h-1
200 µM CQ, pH 5.0, individual replicates (Fig 4a)
  PfCRTDd2 transport activity 200 µM CQ pH 5.0: 9.29 pmol oocyte-1 h-1 and 10.18 pmol oocyte-1 h-1 and 10.48 pmol oocyte-1 h-1
200 µM CQ, pH 5.5, 60 min
  PfCRTDd2 transport activity: 10.75 pmol oocyte-1 h-1
200 µM CQ, pH 5.5, individual replicates (Fig 4a)
  PfCRTDd2 transport activity 200 µM CQ pH 5.5: 11.07 pmol oocyte-1 h-1 and 10.25 pmol oocyte-1 h-1 and 11.13 pmol oocyte-1 h-1 and 10.55 pmol oocyte-1 h-1
200 µM CQ, pH 6.0, 60 min
  PfCRTDd2 transport activity: 13.53 pmol oocyte-1 h-1 and 12.77 pmol oocyte-1 h-1 and 14.22 pmol oocyte-1 h-1 and 13.59 pmol oocyte-1 h-1
200 µM CQ, pH 6.0, individual replicates (Fig 4a)
  PfCRTDd2 transport activity 200 µM CQ pH 6.0: 12.77 pmol oocyte-1 h-1 and 14.22 pmol oocyte-1 h-1 and 13.59 pmol oocyte-1 h-1
200 µM CQ, time 0 min
  PfCRTDd2-mediated CQ transport activity: 0.00 pmol oocyte-1
200 µM CQ, time 30 min
  PfCRTDd2-mediated CQ transport activity: 9.39 pmol oocyte-1
200 µM CQ, time 60 min
  PfCRTDd2-mediated CQ transport activity: 15.25 pmol oocyte-1
200 µM CQ, time 90 min
  PfCRTDd2-mediated CQ transport activity: 18.81 pmol oocyte-1
200 µM CQ
  v-1 pH 4.5: 0.14 (pmol oocyte-1 h-1)-1
  v-1 pH 5.0: 0.10 (pmol oocyte-1 h-1)-1
  v-1 pH 5.5: 0.09 (pmol oocyte-1 h-1)-1
  v-1 pH 6.0: 0.0739 (pmol oocyte-1 h-1)-1
300 µM CQ, pH 4.5, 60 min
  PfCRTDd2 transport activity: 8.79 pmol oocyte-1 h-1 and 8.53 pmol oocyte-1 h-1 and 10.77 pmol oocyte-1 h-1 and 6.50 pmol oocyte-1 h-1 and 9.34 pmol oocyte-1 h-1
300 µM CQ, pH 4.5, individual replicates (Fig 4a)
  PfCRTDd2 transport activity 300 µM CQ pH 4.5: 8.53 pmol oocyte-1 h-1 and 10.77 pmol oocyte-1 h-1 and 6.50 pmol oocyte-1 h-1 and 9.34 pmol oocyte-1 h-1
300 µM CQ, pH 5.0, 60 min
  PfCRTDd2 transport activity: 10.68 pmol oocyte-1 h-1
300 µM CQ, pH 5.0, individual replicates (Fig 4a)
  PfCRTDd2 transport activity 300 µM CQ pH 5.0: 10.67 pmol oocyte-1 h-1 and 9.04 pmol oocyte-1 h-1 and 12.33 pmol oocyte-1 h-1
300 µM CQ, pH 5.5, 60 min
  PfCRTDd2 transport activity: 12.81 pmol oocyte-1 h-1
300 µM CQ, pH 5.5, individual replicates (Fig 4a)
  PfCRTDd2 transport activity 300 µM CQ pH 5.5: 13.73 pmol oocyte-1 h-1 and 12.01 pmol oocyte-1 h-1 and 12.69 pmol oocyte-1 h-1
300 µM CQ, pH 6.0, 60 min
  PfCRTDd2 transport activity: 15.42 pmol oocyte-1 h-1 and 15.31 pmol oocyte-1 h-1 and 16.86 pmol oocyte-1 h-1 and 14.10 pmol oocyte-1 h-1
300 µM CQ, pH 6.0, individual replicates (Fig 4a)
  PfCRTDd2 transport activity 300 µM CQ pH 6.0: 15.31 pmol oocyte-1 h-1 and 16.86 pmol oocyte-1 h-1 and 14.10 pmol oocyte-1 h-1
300 µM CQ, time 0 min
  PfCRTDd2-mediated CQ transport activity: 0.00 pmol oocyte-1
300 µM CQ, time 30 min
  PfCRTDd2-mediated CQ transport activity: 9.78 pmol oocyte-1
300 µM CQ, time 60 min
  PfCRTDd2-mediated CQ transport activity: 14.63 pmol oocyte-1
